From patent publication US9243037B2, “Gramicidin a mutants that function as antibiotics with improved solubility and reduced toxicity” (Trustees of Boston College, priority 2011, dated 2016)
“Also recorded” adds a separate entry of the source. Where two headings read alike, the source gives them in different places.

How the values were obtained:
[1] = cited from earlier work; for Sat. Conc, Lys series: Trp absorbance @ 280 nm, 10 mM PBS, pH 7.0, 1% DMSO, values taken from ref
[2] = system: Streptococcus pyogenes (ATCC 19615); details: for MIC relative to wild-type Gramicidin A: S. Pyogenes
[3] = system: MCF-7; assay: MTT toxicity assay; assay type: cell-based, human; details: MCF-7; in words
Procedure: (§1) Toxicity of gA-WT and gA-5 was tested against two human cancer cell lines, HeLa and MCF-7 (gifts from Professor Eranthie Weerapana at Boston College) by using the MTT assay as described in the protocol provided by Invitrogen.[5] HeLa cells (in DMEM high glucose media with 10% FBS, 1% Pen/Strep, 37° C., 5% CO2) and MCF-7 cells (in RPMI media with 10% FBS and 1% Pen/Strep, 37° C., 5% CO2) were grown to about 80% confluent before removed from the surface of a 20 cm petri-dish with […] with EDTA (3-5 mins, 37° C., 5% CO2). Cells were pelleted (3,500 rpm, 5 mins at 4° C.), and plated at 15,000 cells per well (100 μL per well), then incubated for 48 hrs before peptide addition.
(§2) Stock solutions of gA in DMSO with varied concentrations were prepared so that for each peptide concentration the total volume of DMSO addition was kept constant at 1% (v/v). For each peptide concentration, samples were set up as four replicates. Control wells were loaded with 1 μL of DMSO. After overnight incubation, cells were washed once with PBS before being incubated for 4 hrs with 110 μL of 12 mM 3-(4,5-Dimethylthiazol-2-yl)-2,5-diphenyltetrazolium bromide (MTT) dissolved in RPMI media. The MTT assay was quenched with 100 μL of 10% SDS in 0.01 M HCl and allowed to incubate overnight before absorbance at 570 nm was recorded. Wells were averaged and standard deviations determined for each peptide concentration. Data were normalized to the DMSO control to give % cell survival (see FIG. 3).

[4] = system: HeLa; assay: MTT toxicity assay; assay type: cell-based, human; details: HeLa; in words
Procedure: as §1, §2

[5] = system: human red blood cells (hRBCs); assay: Haemoglobin release from human red blood cells; assay type: cell-based
Procedure: Fresh human red blood cells (hRBCs) were centrifuged at 3500 rpm and washed with PBS buffer until the supernatant was clear. The hRBCs were then resuspended and diluted to a final concentration of 1% (v/v) in PBS and used immediately. 15 μL of serial dilution (2-fold) of peptides in DMSO or DMSO alone as a negative control were added to 1.5 mL of hRBCs in PBS. The resulting mixture was gently shaken to mix well and incubated at 37° C. for 1 hr, followed by centrifugation at 3500 rpm for 10 min using tabletop centrifuge. Aliquots (50 μL) of the supernatant (in triplicates) were transferred into a sterile 96-well plate containing 50 μL of H2O in each well. Release of hemoglobin was monitored at 415 nm using a microtiter plate reader. Percentage hemolysis was calculated using percentage hemolysis=100·(A415, peptide-A415,DMSO)/(A415, complete hemolysis-A415, DMSO), where complete hemolysis is achieved by mixing hRBCs with 1% TritonX-100.

[6] = system: Bacillus subtilis (ATCC 663); details: for MIC relative to wild-type Gramicidin A: B. subtilis
[7] = system: human red blood cells (hRBCs); assay: K+ leakage from hRBCs (flame atomic emission); assay type: cell-based
Procedure: The rest of supernatant (1.2 mL) from each sample prepared as described in the hemoglobin leakage assay was transferred into a new sterile eppendorf tube and subject to the K+ concentration measurement using a flame-atomic emission spectrometer (λem=766.5 nm, Perkin Elmer Atomic absorption Spectrometer 3100, acetylene/air flame). Three readings were taken for each sample and averaged as final results. The fraction of K+ leakage from hRBCs was calculated as percentage K+ leaked=100·(I776.5,peptide−I776.5,DMSO)/(I776.5,complete lysis−I776.5,DMSO).

[8] = system: Staphylococcus aureus (ATCC 6538); details: for MIC relative to wild-type Gramicidin A: S. Aureus
[9] = physchem; assay type: physicochemical
Procedure: Peptide solubility in 10 mM HEPES buffer with 1% DMSO was measured by monitoring tryptophan absorbance. A concentrated (6.0-8.0 mM) peptide stock solution in DMSO was diluted 100 times (5 μL of the stock into 500 jtl of 10 mM HEPES buffer, pH 7.0). The mixture was sonicated for 30 mins and then subject to centrifugation (14,000 rpm, 10 mins) to remove possible precipitate. The supernatant (400 μL) was transferred to a quartz cuvette and the peptide concentration was determined by tryptophan absorbance at 280 nm (ε=22760 M−1 cm-1). The UV/Vis spectra of the supernatant can be seen in FIG. 1 and FIG. 5.

[10] = Peptide binding onto membranes (Trp fluorescence); details: negatively charged POPC/POPG vesicles; in words
[11] = Peptide binding onto membranes (Trp fluorescence)
[12] = K+ release from liposomes, lipid not specified; assay type: biochemical; details: in words
Procedure: With the D-Lys residues incorporated towards the C-terminus, the gA peptide analogs described herein display amphipathic sequences. Since many amphipathic peptides are known to cause membrane damage through a detergent-like mechanism instead of forming specific channels,[19] it was further examined whether it is the case with the gA peptide analogs provided herein. Toward this end, the ion selectivity of gA-3, 4, and 5 was assessed by using liposomes encapsulating K+ and Tb3+ respectively. […] The wild type like channel structure of the D-Lys mutants is further supported by the fact that gA-5 and gA-WT share similar signatures in their circular dichroism spectra (FIG. 11). This exclusive leakage of monovalent cations presents a great advantage of the gA analog peptides described herein in comparison to the majority of AMPs, which often cause catastrophic membrane collapse to release all bacterial cellular content, leading to potential complications of over-stimulated immune response.
The K+ leakage from liposomes was determined by a potassium ion selective electrode (K-ISE, Cole-Parmer, Vernon Hills, Ill.). The electrode was calibrated each day before experiments. A liposome solution in Buffer A (2 mL, 500 μM POPC or POPC/POPG⊃10 mM HEPES, 150 mM KCl, pH 7.0) was stirred at constant speed and peptide at various concentration (1 μL in DMSO) was added accumulatively. Three minutes after each peptide addition, the K+ concentration was measured and reported as the K-ISE potential. At the end of each experiment, gA-WT stock (1 μL, 1 mM) was added to induce 100% K+ leakage. The potential reported by the K-ISE was plotted against peptide concentration after the background noise (caused by DMSO addition) was subtracted and normalized to 0-100%.

[13] = Tb3+ leakage from liposomes, lipid not specified; assay type: biochemical; details: at peptide concentrations causing complete K+ release; in words
[14] = Table 2, standard micro-dilution

## CC(C)C[C@@H](NC(=O)[C@H](C)NC(=O)CNC(=O)[C@@H](NC=O)C(C)C)C(=O)N[C@@H](C)C(=O)N[C@@H](C(=O)N[C@H](C(=O)N[C@@H](C(=O)N[C@@H](Cc1c[nH]c2ccccc12)C(=O)N[C@H](CC(C)C)C(=O)N[C@@H](Cc1c[nH]c2ccccc12)C(=O)N[C@H](CC(C)C)C(=O)N[C@@H](Cc1c[nH]c2ccccc12)C(=O)N[C@H](CC(C)C)C(=O)N[C@@H](Cc1c[nH]c2ccccc12)C(=O)NCCO)C(C)C)C(C)C)C(C)C (racemic) [gA-WT, formyl-V-G-A-dL-A-dV-V-dV-W-dL-W-dL-W-dL-W-NHCH2CH2OH, reference compound]
[1]; wild type, from reference [8]
  solubility in water: < 0.05 µM
[2]; [14]
  MICs S. Pyogenes: 0.16 µM
[2]; Table 6
  Minimum Inhibition Concentration S. Pyogenesis: 0.16 µM
[3]
  toxicity, cell survival (MTT): low μM potency
[4]
  toxicity, cell survival (MTT): low μM potency
[5]; Table 2, hRBCs
  HC50 (50% haemoglobin leakage relative to 1% TritonX-100): 5 µM
[5]; Table 6, hRBCs, preliminary
  Toxicity HC50: 5 µM
[5]; Table 8
  HC50: 5
[6]; [14]
  MICs B. Subtilius: 2.5 µM
[6]; Table 6
  Minimum Inhibition Concentration B. Subtilius: 2.5 µM
[7]; Table 2, hRBCs
  KC50 (50% K+ ion leakage relative to 1% TritonX-100): 0.00014 µM
[7]; Table 6, hRBCs, preliminary
  Toxicity KC50: 0.00014 µM
[7]; hRBCs
  KC50: 140 pM
[8]; [14]
  MICs S. Aureus: 2.5 µM
[8]; Table 6
  Minimum Inhibition Concentration S. Aureus: 2.5 µM

## CC(C)C[C@@H](NC(=O)[C@H](C)NC(=O)CNC(=O)[C@@H](NC=O)C(C)C)C(=O)N[C@@H](C)C(=O)N[C@@H](C(=O)N[C@H](C(=O)N[C@@H](C(=O)N[C@@H](Cc1c[nH]c2ccccc12)C(=O)N[C@H](CC(C)C)C(=O)N[C@@H](Cc1c[nH]c2ccccc12)C(=O)N[C@H](CC(C)C)C(=O)N[C@@H](Cc1c[nH]c2ccccc12)C(=O)N[C@H](CCCCN)C(=O)N[C@@H](Cc1c[nH]c2ccccc12)C(=O)NCCO)C(C)C)C(C)C)C(C)C (racemic) [gA-2, formyl-V-G-A-dL-A-dV-V-dV-W-dL-W-dL-W-dK-W-NHCH2CH2OH]
[9]
  water solubility, fold higher than wild-type Gramicidin A: ~200 fold
[1]
  Sat. Conc, Lys series: 11 µM
[2]; ATCC 19615
  MICs S. Pyogenes: 0.16 µM
[2]
  MIC relative to wild-type Gramicidin A: equivalent to that of wild-type Gramicidin A
[5]; red cells of human
  HC50 (50% haemoglobin leakage relative to 1% TritonX-100): 5~10 μM
[6]; ATCC 663
  MICs B. Subtilius: 5 µM
[6]
  MIC relative to wild-type Gramicidin A: equivalent to that of wild-type Gramicidin A
[7]
  KC50 (50% K+ ion leakage relative to 1% TritonX-100): 0.01 µM
  peptide concentration for 50% K+ ion leakage, fold greater than wild-type Gramicidin A: ~100 fold
[10]
  apparent dissociation constant (Kd) / binding: apparent Kd values close to that of gA-WT
[8]; ATCC 6538
  MICs S. Aureus: 2.5 µM
[8]
  MIC relative to wild-type Gramicidin A: equivalent to that of wild-type Gramicidin A
[11]; neutral POPC vesicles, in words
  apparent dissociation constant (Kd) / binding: apparent Kd values close to that of gA-WT

## CC(C)C[C@@H](NC(=O)[C@H](C)NC(=O)CNC(=O)[C@@H](NC=O)C(C)C)C(=O)N[C@@H](C)C(=O)N[C@@H](C(=O)N[C@H](C(=O)N[C@@H](C(=O)N[C@@H](Cc1c[nH]c2ccccc12)C(=O)N[C@H](CCCCN)C(=O)N[C@@H](Cc1c[nH]c2ccccc12)C(=O)N[C@H](CCCCN)C(=O)N[C@@H](Cc1c[nH]c2ccccc12)C(=O)N[C@H](CC(C)C)C(=O)N[C@@H](Cc1c[nH]c2ccccc12)C(=O)NCCO)C(C)C)C(C)C)C(C)C (racemic) [gA-4, formyl-V-G-A-dL-A-dV-V-dV-W-dK-W-dK-W-dL-W-NHCH2CH2OH]
[12]
  K+ release from LUVs: potent activity in K+ release
[9]
  water solubility, fold higher than wild-type Gramicidin A: ~740 fold
[1]
  Sat. Conc, Lys series: 39 µM
[2]; ATCC 19615
  MICs S. Pyogenes: 0.16 µM
[2]
  MIC relative to wild-type Gramicidin A: equivalent to or ˜2-fold higher
[5]
  haemoglobin leakage from hRBCs: not enough to cause 50% haemoglobin leakage
[5]; red cells of human
  HC50 (50% haemoglobin leakage relative to 1% TritonX-100): >100 µM
[6]; ATCC 663
  MICs B. Subtilius: 2.5 µM
[6]
  MIC relative to wild-type Gramicidin A: equivalent to or ˜2-fold higher
[7]
  KC50 (50% K+ ion leakage relative to 1% TritonX-100): 5~10 μM
  peptide concentration for 50% K+ ion leakage, fold greater than wild-type Gramicidin A: over 10^5 fold
[10]
  apparent dissociation constant (Kd) / binding: comparable to that of gA-WT
[8]; ATCC 6538
  MICs S. Aureus: 5 µM
[8]
  MIC relative to wild-type Gramicidin A: equivalent to or ˜2-fold higher
[11]
  reduced affinity to POPC vesicles: ~70 folds
[13]
  Tb3+ leakage from LUVs: essentially no Tb3+ leakage; also recorded: behave similarly to gA-5

## CC(C)C[C@@H](NC(=O)[C@H](C)NC(=O)CNC(=O)[C@@H](NC=O)C(C)C)C(=O)N[C@@H](C)C(=O)N[C@@H](C(=O)N[C@H](C(=O)N[C@@H](C(=O)N[C@@H](Cc1c[nH]c2ccccc12)C(=O)N[C@H](CCCCN)C(=O)N[C@@H](Cc1c[nH]c2ccccc12)C(=O)N[C@H](CC(C)C)C(=O)N[C@@H](Cc1c[nH]c2ccccc12)C(=O)N[C@H](CCCCN)C(=O)N[C@@H](Cc1c[nH]c2ccccc12)C(=O)NCCO)C(C)C)C(C)C)C(C)C (racemic) [gA-3, formyl-V-G-A-dL-A-dV-V-dV-W-dK-W-dL-W-dK-W-NHCH2CH2OH]
[12]
  K+ release from LUVs: potent activity in K+ release
[9]
  water solubility, fold higher than wild-type Gramicidin A: ~740 fold
[1]
  Sat. Conc, Lys series: 38 µM
[2]; ATCC 19615
  MICs S. Pyogenes: 0.32 µM
[2]
  MIC relative to wild-type Gramicidin A: ~2 fold
[5]
  haemoglobin leakage from hRBCs: not enough to cause 50% haemoglobin leakage
[5]; red cells of human
  HC50 (50% haemoglobin leakage relative to 1% TritonX-100): >70 µM
[6]; ATCC 663
  MICs B. Subtilius: 5 µM
[6]
  MIC relative to wild-type Gramicidin A: ~2 fold
[7]
  KC50 (50% K+ ion leakage relative to 1% TritonX-100): 5~10 μM
  peptide concentration for 50% K+ ion leakage, fold greater than wild-type Gramicidin A: greater than 10^5 fold
[10]
  apparent dissociation constant (Kd) / binding: comparable to that of gA-WT
[8]; ATCC 6538
  MICs S. Aureus: 5 µM
[8]
  MIC relative to wild-type Gramicidin A: ~2 fold
[11]
  reduced affinity to POPC vesicles: ~70 folds
[13]
  Tb3+ leakage from LUVs: essentially no Tb3+ leakage; also recorded: behave similarly to gA-5
